How the values were obtained:
Adenosine receptor A2a = Adenosine receptor A2a (Rattus norvegicus, UniProt P30543)
Description: Inhibition of [3H]-CGS- 21680 binding to Adenosine A2A receptor in rat striatal homogenates.

[1] = system: Adenosine receptor A2a (Oryctolagus cuniculus)
Adenosine receptor A1 = target: T1, Adenosine receptor A1 (Rattus norvegicus, UniProt P25099); experiment: biochemical
T1 sequence (P25099 whole entry): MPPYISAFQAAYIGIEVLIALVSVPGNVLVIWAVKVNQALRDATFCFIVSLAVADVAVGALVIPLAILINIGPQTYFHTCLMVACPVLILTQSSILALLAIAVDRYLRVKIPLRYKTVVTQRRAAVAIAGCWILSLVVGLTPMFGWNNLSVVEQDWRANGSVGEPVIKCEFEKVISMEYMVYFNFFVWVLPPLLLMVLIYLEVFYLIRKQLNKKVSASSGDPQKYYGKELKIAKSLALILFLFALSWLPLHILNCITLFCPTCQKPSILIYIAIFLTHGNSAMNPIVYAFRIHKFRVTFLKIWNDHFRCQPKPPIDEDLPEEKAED
Description: Inhibition of [3H]-CHA binding to Adenosine A1 receptor in rat whole brain homogenates.

Chain of Adenosine receptor A2a (P30543 whole entry): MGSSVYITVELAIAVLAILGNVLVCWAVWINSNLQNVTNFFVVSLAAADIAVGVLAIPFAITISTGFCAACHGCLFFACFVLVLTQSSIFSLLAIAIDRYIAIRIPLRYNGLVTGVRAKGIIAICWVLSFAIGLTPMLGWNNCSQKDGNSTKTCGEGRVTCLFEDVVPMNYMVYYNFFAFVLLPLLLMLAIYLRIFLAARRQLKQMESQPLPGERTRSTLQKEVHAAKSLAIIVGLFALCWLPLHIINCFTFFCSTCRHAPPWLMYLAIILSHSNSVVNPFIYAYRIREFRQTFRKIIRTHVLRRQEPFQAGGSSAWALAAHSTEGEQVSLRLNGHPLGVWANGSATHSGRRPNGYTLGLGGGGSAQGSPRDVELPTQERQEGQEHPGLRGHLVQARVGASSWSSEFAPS

Ki (Adenosine receptor A2a) [nM]	ED50 [1] [nM]	Ki (Adenosine receptor A1) [nM]	Structure (SMILES)
166		330	OCCn1ncc2c1nc(NCc1ccccc1)n1nc(-c3ccco3)nc21
> 1000		> 1000	Nc1nc2c(cnn2CCOCc2ccccc2)c2nc(-c3ccco3)nn12
260		430	CC(C)(C)n1ncc2c1nc(N)n1nc(-c3ccco3)nc21
77.7			Nc1nc2c(cnn2CCO)c2nc(-c3ccco3)nn12
22.6		210	Nc1nc2n[nH]cc2c2nc(-c3ccco3)nn12
5.6	30	471	Nc1nc2c(cnn2CCN2CCOCC2)c2nc(-c3ccco3)nn12
12		116	CCC(C)Cn1ncc2c1nc(N)n1nc(-c3ccco3)nc21 (centres undefined)
21		2710	Nc1nc2c(cnn2CCCCc2ccccc2)c2nc(-c3ccco3)nn12
2.4		504	Nc1nc2c(cnn2CCCc2ccccc2)c2nc(-c3ccco3)nn12 [SCH-63390]
	300		CCCCn1ncc2c1nc(N)n1nc(-c3ccco3)nc21
	4		Nc1nc2nn(Cc3ccc(F)cc3)cc2c2nc(-c3ccco3)nn12
22	< 1000	> 3000	CC(C)Cc1ccc(CCn2ncc3c2nc(N)n2nc(-c4ccco4)nc32)cc1

Structure (SMILES)	Ki (Adenosine receptor A2a) [nM]	ED50 [1] [nM]	Ki (Adenosine receptor A1) [nM]
Nc1nc2c(cnn2Cc2ccc(F)cc2)c2nc(-c3ccco3)nn12	12	10600	189
Nc1nc2c(cnn2-c2ccccc2)c2nc(-c3ccco3)nn12	22.7	> 1000	119

From ChEMBL document CHEMBL1129517, “Pyrazolo[4,3-e]-1,2,4-triazolo[1,5-c]pyrimidine derivatives: potent and selective A(2A) adenosine antagonists” (J Med Chem, 1996)
